Assay results from paper PMC5360416 (Journal of pharmaceutical sciences, 2014).
Counter-ions that a name gives are not always drawn.

Tests used:
[1] = Pharmacokinetics in adult male SD rats; type: in vivo, rat; conditions: 6 mg/kg; for AUC(0-inf) / Cmax: male, Sprague-Dawley, rat, plasma
[2] = system: MCT induced PAH rats; assay: Acute hemodynamic efficacy in MCT induced PAH rats; type: in vivo, rat; conditions: 3 mg/kg
[3] = stated without reference, cited from earlier work
[4] = Short-term lung toxicity, bronchoalveolar lavage; type: in vivo, rat; conditions: 12 hrs
[5] = system: rat PASM cells
[6] = 0.1% SDS, compared with CAR-micelles and plain drug

Structure (SMILES)	time after which no plasma concentration was shown ([1]; IT) [h]	time after which no plasma concentration was shown ([1]; IV) [h]	AUC(0-inf) ([1]; inhaled or intranasal) [µg·h/mL]	Cmax ([1]; inhaled or intranasal) [µg/mL]	AUC(0-inf) ([1]; iv) [µg·h/mL]	Cmax ([1]; iv) [µg/mL]	reduction in MPAP, IT versus IV ([2]; plain fasudil IT)	reduction in MSAP ([2]; plain fasudil IV and IT)	solubility in methanol ([3]; methanol)	solubility in water ([3]; water) [mg/mL]	ALP level in BAL fluid [4, 6]	LDH level in BAL fluid [4, 6]	wet lung weight compared to saline treated rats ([4]; intratracheal, CAR-micelles equivalent to 6 mg/kg fasudil, SDS 0.1%)	cell viability [5] [%]
O=S(=O)(c1cccc2cnccc12)N1CCCNCC1 [Fasudil, Fasudil hydrochloride]	6	2	21.7 ± 4.08	1.45 ± 0.58	27.6 ± 3.91	3.78 ± 0.23	more pronounced reduction in MPAP than IV fasudil	significant reduction	moderately soluble	~200	–	–	–	–
CCCCCCCCCCCCOS(=O)(=O)[O-].[Na+] [SDS, sodium dodecyl sulfate]	–	–	–	–	–	–	–	–	–	–	elevated levels	elevated levels	two-fold	~16
